Laboratory results published in patent US5661160A, “Substituted pyrrolidin-3-yl-alkyl-piperidines” (Merrell Pharmaceuticals Inc., priority 1995, dated 1997).
Where a name gives a salt, the structure may show the parent alone.

Columns and labels:
[1] = target: T1, NK2 receptor (SKLKB82#3 cells) (Bos taurus, UniProt P05363); assay: Antagonism of NK2 receptor mediated (NKA-induced) phosphatidylinositol turnover in SKLKB82#3 cells; assay type: cell-based; details: for NK-2 RECEPTOR -SLOPE: Schild analysis, NKA, mean (95% confidence limits)
T1 construct: expressed in transfected cells; host or cells: SKLKB82#3 cells (mouse B82 fibroblasts, own knowledge)
T1 sequence (P05363 1-384): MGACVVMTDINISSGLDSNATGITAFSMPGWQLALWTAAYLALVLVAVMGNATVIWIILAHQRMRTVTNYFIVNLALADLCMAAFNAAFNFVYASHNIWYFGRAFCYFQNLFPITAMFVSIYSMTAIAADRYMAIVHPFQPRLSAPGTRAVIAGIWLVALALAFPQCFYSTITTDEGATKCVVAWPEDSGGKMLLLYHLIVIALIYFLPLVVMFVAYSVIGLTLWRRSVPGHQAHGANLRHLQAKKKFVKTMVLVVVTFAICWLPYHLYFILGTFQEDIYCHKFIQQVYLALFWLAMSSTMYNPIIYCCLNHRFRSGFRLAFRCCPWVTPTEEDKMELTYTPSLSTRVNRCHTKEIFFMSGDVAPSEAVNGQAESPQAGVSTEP
Description: Tachykinin-mediated inositol phosphate accumulation was measured in UC11 or SKLKB82#3 cells in the presence and absence of NK1 or NK2 receptor antagonists, respectively. Tissues were incubated in Krebs-Henseleit buffer at 37° C. with 95% O2 -5% CO2 gassing. Tissues were then incubated with fresh buffer containing 100 μCi of myo-[2-^3 H(N)] inositol at 37° C. for 60 min with gentle gassing. After washing twice in 5 ml room temperature buffer containing 10 mM LiCl, tissues were incubated for 30 min at room temperature with a buffer change at 15 min. Buffer was removed and Krebs-Henseleit buffer (containing 40 μg/ml bacitracin, 4 μg/ml each of leupeptin and chymostatin, 0.1% bovine serum albumin and 10 mM each of thiorphan and LiCl) added. After 15 min, SP was added to UC11 cells or NKA to SKLKB82#3 cells at various concentrations to start the reaction. After incubation for 60 min at room temperature the reaction was terminated by addition of 930 μl chloroform:methanol (1:2 by volume) to each tube, followed by 310 μl chloroform and 310 μl doubly distilled water. Samples were vortexed, centrifuged, and 0.9 ml of the aqueous (top) phase removed and added to 2 ml ddH2 O. The mixture was vortexed and loaded onto a 50% Bio-Rad AG 1-X8 (formate form, 100-200 mesh) exchange column (Bio-Rad Laboratories, Hercules, Calif.). The columns were washed, in order, with: 1) 10 ml doubly distilled water, 2) 5 ml of 5 mM disodium tetraborate/60 mM sodium formate, and 3) 5 ml of 1M ammonium formate/0.1M formic acid. The third elution was collected and 1 ml counted in 7 ml scintillation fluid. A 50 μl aliquot of the organic (bottom) phase was removed, dried in a scintillation vial and counted in 7 ml scintillation fluid.
(§1) The ratio of DPM in the aqueous phase aliquot (total inositol phosphates) to the DPM in the 50 μl organic phase aliquot (total [^3 H]-inositol incorporated) was calculated for each sample. Data are expressed as a percent of agonist-induced accumulation of [^3 H]-inositol phosphates over basal levels. […] Dose-response graphs were constructed and the abilities of the test compounds to inhibit tachykinin-induced phosphatidyinositol turnover determined with the aid of a computer program. […] Data is expressed as percent stimulation of total inositol phosphate accumulation over basal levels and normalized to the maximum response produced by SP. […] Schild analysis is performed using dose response curves (such as those presented in FIGS. 1a and 1b) to obtain a value indicative of the Strength of a competitive antagonist and is expressed as the pA2, which is the negative logarithm of the molar concentration of antagonist which reduces the effect of a dose of agonist to one-half of that expected at the dose of agonist.

[2] = tested on: NK1 and NK2 receptors; assay: Antagonism of capsaicin aerosol-induced respiratory effects in conscious guinea pigs, intravenous; assay type: in vivo, guinea pig; details: for SRE NUMBER: coughs/gasps during 19 min capsaicin exposure, mean and SEM; for effect on capsaicin-induced respiratory effects (in words): i.v.
Description: (§2) In vivo experiments were performed using male Duncan Hartley guinea pigs (250-350 g). Changes in conscious breathing patterns were monitored in four animals simultaneously using modified whole body plethysmography consisting of four small plexiglass boxes each connected to a reference box via Validyne DP 45-16 differential pressure transducers. The 4 boxes were equipped with an air supply line (also used for aerosol delivery) and an exhaust air line. Supply and exhaust lines were of the same length and narrow bore and arose from a common supply chamber and vented to a common exhaust chamber. This system was used to ensure that fluctuations in supply air and atmospheric pressure would remain in phase and be eliminated from the net signal by the differential pressure transducers. The analog pressure signals were digitalized via a Data Translation DT2821 A to D board. Data were collected at a rate of 100 samples/second/animal. Each cycle of pressure change was analyzed using the following parameters: rising and falling slope determined between minimum and maximum pressures, the ratio of rising over falling slope, and the magnitude of the change between initial trough pressure and peak cycle pressure. Using these values (and observing the animals) the pressure cycles were characterized into normal breaths, forced exhalations (apparent by abdominal heaving), significant respiratory events (SREs; usually coughs, less often sneezes or gasps which were characterized by transient, extremely large pressure increases which were distinguishable from noise) and movement/noise with a PCAT 286 running a System V UNIX operating system. Dyspnea was defined as a significant, sustained increase in plethysmograph pressure which was associated with an observable shift to labored breathing in the animal.
(§3) During the course of a typical experiment in which airway responsiveness to various bronchoconstricting agents was examined, aerosols were delivered for 19 min (0.33 ml/min) using a DeVilbiss Ultraneb 99 ultrasonic nebulizer and animals monitored during this time. Prior to nebulization, 1 min of resting breathing was collected to establish a baseline pressure. […] The vehicle for nebulization of all bronchoconstrictive agents was phosphate buffered saline (pH 7.4) which elicited no respiratory effects itself. Putative tachykinin antagonists were administered either (i.v.) 20 min prior to onset of aerosol exposure or orally 1 hour prior to onset (to guinea pigs after an overnight fast).
(§4) Capsaicin aerosol is known to promote release of the tachykinins SP and NKA from sensory nerves in the airways of guinea pigs which may then act upon NK1 and NK2 receptors, respectively to elicit respiratory effects.

[3] = target: T2, NK1 receptor (UC11 cells) (Homo sapiens, UniProt P25103); assay: Antagonism of NK1 receptor mediated (SP-induced) phosphatidylinositol turnover in UC11 cells; assay type: cell-based
T2 construct: endogenous in cells; host or cells: UC11 cells
Description: Tachykinin-mediated inositol phosphate accumulation was measured in UC11 or SKLKB82#3 cells in the presence and absence of NK1 or NK2 receptor antagonists, respectively. Tissues were incubated in Krebs-Henseleit buffer at 37° C. with 95% O2 -5% CO2 gassing. Tissues were then incubated with fresh buffer containing 100 μCi of myo-[2-^3 H(N)] inositol at 37° C. for 60 min with gentle gassing. After washing twice in 5 ml room temperature buffer containing 10 mM LiCl, tissues were incubated for 30 min at room temperature with a buffer change at 15 min. Buffer was removed and Krebs-Henseleit buffer (containing 40 μg/ml bacitracin, 4 μg/ml each of leupeptin and chymostatin, 0.1% bovine serum albumin and 10 mM each of thiorphan and LiCl) added. After 15 min, SP was added to UC11 cells or NKA to SKLKB82#3 cells at various concentrations to start the reaction. […] The third elution was collected and 1 ml counted in 7 ml scintillation fluid. A 50 μl aliquot of the organic (bottom) phase was removed, dried in a scintillation vial and counted in 7 ml scintillation fluid.
as §1

[4] = tested on: NK1 and NK2 receptors; assay: Antagonism of capsaicin aerosol-induced respiratory effects in conscious guinea pigs, oral; assay type: in vivo, guinea pig; details: for SRE NUMBER: coughs/gasps during 19 min capsaicin exposure, mean and SEM; for effect on capsaicin aerosol effects (in words): oral
Description: as §2, §3, §4

[5] = target: T3, NK1 receptors (Cavia porcellus, UniProt P30547); assay: Antagonism of SP-induced plasma protein extravasation in guinea pig trachea; assay type: in vivo; details: for relative potency as NK-1 receptor antagonists (in words): Example 3 versus its (+)-enantiomer Example 20A
T3 construct: measuring Evans Blue dye accumulation in guinea pig trachea; from tissue; host or cells: guinea pig trachea and primary bronchi, whole animal in vivo
Description: SP-induced protein leakage through postcapillary venules was assessed by measuring Evans Blue dye accumulation in guinea pig trachea. Animals were anesthetized with pentobarbital then injected with Evans Blue dye (20 mg/kg, i.v., prepared in 0.9% NaCl solution). One minute after dye administration, the antagonist was administered (i.v.) followed by SP (0.3 nmole/kg, i.v.) and, after 5 min, excess dye removed from the circulation by transcardiac perfusion with 50 ml 0.9% NaCl solution. The trachea and primary bronchi were removed, blotted dry and weighed. Dye quantitation was performed spectrophotometrically ([…]) after extracting tissues in formamide for 24 hr at 50° C. Values were subtracted from background (dye only, no agonist). ED50 (dose of compound which inhibits SP-induced plasma protein extravasation by 50%) was calculated from linear regression analysis.

[6] = tested on: NK2 receptor; assay: Antagonism of NKA aerosol-induced respiratory effects in conscious guinea pigs; assay type: in vivo, guinea pig; details: dose dependent
Description: as §2
During the course of a typical experiment in which airway responsiveness to various bronchoconstricting agents was examined, aerosols were delivered for 19 min (0.33 ml/min) using a DeVilbiss Ultraneb 99 ultrasonic nebulizer and animals monitored during this time. […]

T3 sequence (P30547 whole entry): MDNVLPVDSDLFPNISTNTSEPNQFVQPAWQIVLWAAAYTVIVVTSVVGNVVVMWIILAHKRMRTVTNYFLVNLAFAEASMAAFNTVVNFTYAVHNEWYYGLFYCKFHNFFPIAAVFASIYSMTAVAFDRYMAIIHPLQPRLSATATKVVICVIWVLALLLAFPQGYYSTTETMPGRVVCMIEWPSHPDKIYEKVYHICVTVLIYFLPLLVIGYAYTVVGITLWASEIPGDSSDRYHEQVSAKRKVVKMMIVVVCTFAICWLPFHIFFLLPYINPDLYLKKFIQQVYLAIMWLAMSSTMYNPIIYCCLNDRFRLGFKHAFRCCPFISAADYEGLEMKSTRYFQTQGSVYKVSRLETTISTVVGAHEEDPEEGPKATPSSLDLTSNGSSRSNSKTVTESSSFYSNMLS
T2 sequence (P25103 whole entry): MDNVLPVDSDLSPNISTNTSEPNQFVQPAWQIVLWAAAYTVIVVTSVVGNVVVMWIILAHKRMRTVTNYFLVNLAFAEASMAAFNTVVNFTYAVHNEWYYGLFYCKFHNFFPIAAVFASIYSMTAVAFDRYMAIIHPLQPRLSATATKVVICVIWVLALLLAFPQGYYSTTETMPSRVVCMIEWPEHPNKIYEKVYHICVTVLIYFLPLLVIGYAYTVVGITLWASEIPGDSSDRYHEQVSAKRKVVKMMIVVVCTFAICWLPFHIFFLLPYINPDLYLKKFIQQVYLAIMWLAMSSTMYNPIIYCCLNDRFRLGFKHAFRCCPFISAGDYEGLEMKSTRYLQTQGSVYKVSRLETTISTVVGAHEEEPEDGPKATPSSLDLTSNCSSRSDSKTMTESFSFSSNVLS

COc1cc(C(=O)N2CCC(CCN3CCC(C(N)=O)(c4ccccc4)CC3)(c3ccc(Cl)c(Cl)c3)C2)cc(OC)c1OC (racemic) [Example 3A, 1-[2-[3-(3,4-dichloro-phenyl)-1-(3,4,5-trimethoxy-benzoyl)-pyrrolidin-3-yl]-ethyl]-4-phenyl-piperidine-4-carboxylic acid amide hydrochloride]
NK-2 RECEPTOR -SLOPE [1]: 0.73 | SRE NUMBER ([2]; 10 mg/kg i.v.): 8.50 ± 1.9 | effect on capsaicin-induced respiratory effects (in words) [2]: attenuate capsaicin-induced respiratory effects | NK-1 RECEPTOR -SLOPE ([3]; Schild analysis, SP, mean (95% confidence limits)): 0.90 | SRE NUMBER ([4]; 25 mg/kg oral): 4.6 ± 1.0 | SRE NUMBER ([4]; 50 mg/kg oral): 2.8 ± 0.8 | SRE NUMBER ([4]; 100 mg/kg oral): 2.1 ± 0.5 | effect on capsaicin aerosol effects (in words) [4]: antagonize the effects of capsaicin aerosol

COc1cc(C(=O)N2CCC(CCN3CCC(C(N)=O)(c4ccccc4)CC3)(c3ccc(Cl)c(Cl)c3)C2)cc(OC)c1OC.Cl (single isomer, unassigned; (+)) [Example 20A, (+)-1-[2-[3-(3,4-dichloro-phenyl)-1-(3,4,5-trimethoxy-benzoyl)-pyrrolidin-3-yl]-ethyl]-4-phenyl-piperidine-4-carboxylic acid amide hydrochloride]
relative potency as NK-1 receptor antagonists (in words) [5]: equipotent | SRE NUMBER ([2]; 1 mg/kg i.v.): 9.9 ± 2.7 | SRE NUMBER ([2]; 2.5 mg/kg i.v.): 8.3 ± 1.6 | SRE NUMBER ([2]; 5 mg/kg i.v.): 4.4 ± 1.9 | SRE NUMBER ([2]; 10 mg/kg i.v.): 3.3 ± 1.1 | effect on capsaicin-induced respiratory effects (in words) [2]: attenuate capsaicin-induced respiratory effects | effect on NKA aerosol respiratory effects (in words) [6]: reduced the effects of NKA aerosol

COc1cc(C(=O)N2CCC(CCN3CCC(C(N)=O)(c4ccccc4)CC3)(c3ccc(Cl)c(Cl)c3)C2)cc(OC)c1OC (single isomer, unassigned; (+)) [Example 20]
NK-2 RECEPTOR -SLOPE [1]: 1.00

COc1cc(C(=O)N2CCC(CCN3CCC(C(N)=O)(c4ccccc4)CC3)(c3ccc(Cl)c(Cl)c3)C2)cc(OC)c1OC (stereo not shown) [Example 3, 1-[2-[3-(3,4-dichloro-phenyl)-1-(3,4,5-trimethoxy-benzoyl)-pyrrolidin-3-yl]-ethyl]-4-phenyl-piperidine-4-carboxylic acid amide]
relative potency as NK-1 receptor antagonists (in words) [5]: equipotent | antagonism of SP-induced plasma protein extravasation (in words) ([5]; FIG. 2): dose related antagonism | antagonism of NKA induced PI turnover (in words) ([1]; FIG. 1b): dose related antagonism | agonist activity, PI turnover (in words) ([1]; compound alone): no agonist activity | antagonism of SP induced PI turnover (in words) ([3]; FIG. 1a): dose related antagonism | agonist activity, PI turnover (in words) ([3]; compound alone): no agonist activity | effect on NKA aerosol respiratory effects (in words) [6]: reduced the effects of NKA aerosol

COc1cccc(OC)c1C(=O)N1CCC(CCN2CCC(C(N)=O)(c3ccccc3)CC2)(c2ccc(Cl)c(Cl)c2)C1 (stereo not shown) [Example 5A, 1-[2-[3-(3,4-dichloro-phenyl)-1-(2,6-dimethoxy-benzoyl)-pyrrolidin-3-yl]-ethyl]-4-phenyl-piperidine-4-carboxylic acid amide hydrochloride]
effect on NKA aerosol respiratory effects (in words) [6]: reduced the effects of NKA aerosol

COc1cccc(OC)c1C(=O)N1CCC(CCN2CCC(C(N)=O)(c3ccccc3)CC2)(c2ccc(Cl)c(Cl)c2)C1 (stereo not shown) [Example 5]
effect on capsaicin aerosol effects (in words) [4]: antagonize the effects of capsaicin aerosol
